Two molecules from patent US20140378513A1, “USE OF FUNGICIDES IN LIQUID SYSTEMS” (priority 2011, published 2014) can be followed below.

Data set [1] deals with Pest in infected Scenedesmus dimorphus culture. Kind of data set: Fungicide efficacy on pest control in infected microalgae culture. Type of data set: cell-based. The conditions noted are these: for Rating: rating scale of 0 to 3 by percent efficacy. From the text: Failure to treat an infected culture results in the collapse and loss of the microalgae culture. […] Test fungicides are graded on a rating scale of 0 to 3 where a score of 0 represents an efficacy of between 0 and 25%, a score of 1 represents an efficacy of between 26 and 50%, a score of 2 represents an efficacy of between 51 and 75% and a score of 3 represents an efficacy of between 76 and 100%.

In data set [2] the test system is Paraphysoderma sedebokerensis. The data set is described as follows: Haematococcus pluvialis outdoor pond, PCR monitoring and treatment. The conditions noted are these: 1 ppm. Here is the method: A 200,000 liter outdoor pond is inoculated with Haematococcus pluvialis at an initial OD (750 nm) of ˜0.15 (pond P08). Growth of the microalgae is monitored daily by measuring the ash free dry weight of the culture. PCR monitoring is performed daily to detect the presence of the chytrid fungus Paraphysoderma sedebokerensis or close relatives using […] (SEQ ID NO. 38) and […] (SEQ ID NO. 39) as primers.
Initially, the Ct value for the pest is above the threshold of Ct=30. The measured Ct observed for P. sedebokerensis stays below Ct=30 and indicates a need for crop protective action. Once detected with a Ct<30, chlorothalonil is added at a concentration of 1 ppm. Daily monitoring is continued and the Ct observed for P. sedebokerensis increases above the Ct=30 threshold and remains above the threshold.

The test system of data set [3] is Rhizophidium planktonicum. Kind of data set: Arthrospira sp. outdoor pond, qPCR monitoring and treatment. The note with it: 1 ppm. Here is the method:
A 200,000 liter outdoor pond located in Las Cruces, N. Mex. is inoculated with Arthrospira sp. at an initial DW of 0.2 g/l. Growth of the microalgae is monitored daily by measuring the ash free dry weight of the culture. qPCR monitoring is performed daily to detect the presence of the chytrid fungus Rhizophidium planktonicum or close relatives using primers […] (SEQ ID NO. 40) and […] (SEQ ID NO. 41).
Initially, the Ct value for the pest is above the threshold of Ct=30. The measured Ct observed for R. planktonicum stays below Ct=30 and indicates a need for crop protective action. Once detected with a Ct<30, chlorothalonil is added at a concentration of 1 ppm. Daily monitoring is continued and the Ct observed for R. planktonicum increases above the Ct=30 threshold and remains above the threshold.

The subject of a further data set is microalgae. The data set is described as follows: Ranges of microalgae toxicity (serial dilution of fungicide in growing culture). The conditions noted are these: range in which fungicide begins to show growth effects on microalgae. An excerpt: The present disclosure provides for the introduction of fungicides at an effective concentration. Effective concentrations may be determined according to manufacturer's instructions or may be determined empirically. An effective concentration of a fungicide is not toxic to the microalgae being cultured in the liquid system. Methods to determine toxicity are known in the art and include serial dilutions of a test fungicide in a growing liquid culture of microalgae. One of skill in the art would understand that different microalgae may have different ranges of toxicity that may be determined by growth of a microalga in the presence of a serial dilution of a fungicide.
Algae are screened for sensitivity to chemicals by preparing 180 ml of a log phase culture. The log phase culture is transferred into a 96 well microtiter plate at an absorbance at 750 nm (OD750 or A750) of ˜0.2. Twenty microliters of media is provided into the top row as a negative control, the middle six rows receive a 20 microliter dilution, which is a 10 fold dilution of the chemical at each transfer, of the chemical across an appropriate concentration gradient, and the bottom row receives 20 microliter of the solvent used to solubilize the pesticide alone as a control. The total volume per well is 200 μl. Each chemical is tested in triplicate. The growth of the algae is tracked daily by measuring the A750. After 8 days, the growth rate of the algae is measured by fitting the growth curve to a log model and deriving the maximum growth rate (r). The impact of the chemical is calculated by comparing the r of the algae at various dilutions of the pesticide to the control.

For data set [4], the system named is desmid strain (UTEX 1237). The data set is described as follows: Growth of uncontaminated laboratory microalgae culture with fungicide (OD 750 nm). Type of data set: cell-based. The conditions noted are these: UTEX 1237, 32° C., OD 750 nm daily. The protocol: A desmid strain (UTEX 1237) is inoculated into 1 ml of media at an initial A750 of 0.15. […] These cultures are monitored daily for growth by measuring the optical density of the culture at 750 nm. If pests are detected, their genomic DNA is quantitated at the beginning and end of the experiment using the methods presented above. […]
A desmid strain (UTEX 1237) is inoculated into 1.0 ml of media IABR6 at an initial OD (A750) of 0.15. […] These cultures are monitored daily for growth by measuring the optical density of the culture at 750 nm. If pests are detected, their genomic DNA is quantitated at the beginning and end of the experiment using the methods presented above. […]
A desmid strain (UTEX 1237) is inoculated into 1 ml of media at an initial OD (750 nm) of 0.15. […] These cultures are monitored daily for growth by measuring the optical density of the culture at 750 nm. If pests are in these cultures their genomic DNA is quantitated at the beginning and end of the experiment. […]

Data set [5] deals with chytrids known to infect the strain (desmid UTEX 1237). The data set is described as follows: Growth of chytrid-inoculated microalgae culture with fungicide (OD 750 nm). Type of data set: cell-based. The protocol: Microalgae cultures are prepared as described above and further inoculated with chytrids known to infect the strain, grown, and monitored as described above. […] In contrast, contaminated cultures grown in the presence of 250 ppb or higher concentrations of fluazinam are not affected by the presence of added chytrid. Fluazinam at a concentration of 100 ppb results in a stabilization of microalgae density at 0.8 ODU which is about 4 times the density of microalgae grown in the absence of fluazinam.
Microalgae cultures are prepared as described above and further inoculated with chytrids known to infect the strain, grown and monitored as described above. […] In contrast, contaminated cultures grown in the presence of 1 ppm or higher concentrations of Headline® are not affected by the presence of added chytrid contaminant. Headline® at a concentration of 0.5 ppm results in a stabilization of microalgae density at about 0.3 ODU which is about 2 times the density of microalgae grown in the absence of Headline®.
Microalgae cultures are prepared as described above and further inoculated with chytrids known to infect the strain, grown and monitored as described above. […] In contrast, contaminated cultures grown in the presence of 2 ppm or higher concentrations of Thiram® are not affected by the presence of added chytrid contaminant. Thiram® at a concentration of 1.0 ppm results in a stabilization of microalgae density at about 0.8 ODU which is about 4 times the density of microalgae grown in the absence of Thiram®.

The next data set relates to pest FD100. The data set is described as follows: 200,000 liter outdoor desmid pond P08, qPCR monitoring and treatment. More on the design: species or system chytrid FD100. The conditions noted are these: 0.5 ppm added day 18 post-inoculation; through day 38. The protocol:
A 200,000 liter outdoor pond located in Las Cruces, N. Mex. is inoculated with a desmid strain at an initial OD (750 nm) of ˜0.15 (pond P08). Growth of the microalgae is monitored daily by measuring the ash free dry weight of the culture. PCR monitoring is performed daily to detect the presence of pests.
Initially, the Ct value for the pest is above the threshold of Ct=30 until day 15 (See, FIG. 14). The measured Ct observed for pest FD100 monitoring stays below Ct=30 and indicates a need for crop protective action. On day 18 post-inoculation, fluazinam is added at a concentration of 0.5 ppm. Daily monitoring is continued and the Ct observed for pest FD100 increases above the Ct=30 threshold and remains above the threshold through day 38.
Successful culture depends on the timely identification of a pest. On day 30, in response to a decrease in optical density of the culture, 1 ppm of pyraclostrobin is added.

In another data set the test system is chytrid pest. Kind of data set: Outdoor ponds P16 and PA6 with or without fluazinam treatment. Here is the method: Monitoring for chytrid pest and microalgae growth is performed as described in the examples above. In Pond 16 (P16), a signal for the presence of a chytrid pest is detected beginning on Day 8 using the universal primer pair to the methyltransferase gene (SEQ ID NOs: 30 and 31) and to the ITS gene (SEQ ID NOs: 32 and 33). At this point, 400 liters of P16 are inoculated into Pond A6 (PA6). Continuous detection of the presence of chytrid in pond P16 and A6, indicates a need for crop protection and 0.5 ppm of fluazinam is added on Day 11 to P16 but not PA6. Monitoring of the growth of microalgae is continued in both Pond 16 and Pond A6 using total organic carbon (TOC), OD(750), fluorescence, and a FlowCAM®.

[6] abbreviates: Tetradesmus dimorphus, read-out: Scenedesmus dimorphus efficacy.
[7] abbreviates: fluazinam 100 ppb, contaminated culture.

On to `N#Cc1c(Cl)c(Cl)c(Cl)c(C#N)c1Cl` [chlorothalonil, 2,4,5,6-tetrachlorobenzene-1,3-dicarbonitrile], for which the “Scenedesmus dimorphus Efficacy confirmation” value in data set [1] (@ 2 ppm, second trial) was 75.7% @ 2 ppm. The activity at 2 ppm in data set [1] (setting [6]) amounted to 84.5%. Besides, the Rating in data set [1] is 3 (a score of 3 represents an efficacy of between 76 and 100%). Besides, in data set [2], the “Ct observed for P. sedebokerensis after treatment” value is greater than 30. Moreover, the “Ct observed for R. planktonicum after treatment” value in data set [3] is greater than 30.
For `O=[N+]([O-])c1cc(C(F)(F)F)c(Cl)c([N+](=O)[O-])c1Nc1ncc(C(F)(F)F)cc1Cl` [fluazinam, 3-chloro-N-[3-chloro-2,6-dinitro-4-(trifluoromethyl)phenyl]-5-(trifluoromethyl)-2-pyridinamine], in the data set with microalgae, the “Ranges of Microalgae toxicity” value is on record as greater than 7.5 ppm. In addition, in data set [1] (setting [6]), the activity at 0.8 ppm was 67%. Further, the Rating in data set [1] is 2 (a score of 2 represents an efficacy of between 51 and 75%). For the same molecule, the “concentrations that do not significantly affect the growth of the uncontaminated microalgae culture” value in data set [4] was “up to 2 ppm”. The “concentration at which contaminated cultures are not affected by the presence of added chytrid” value in data set [5] (UTEX 1237 inoculated with chytrids) is reported as no less than 250 ppb. In data set [5] (setting [7]), the “density relative to microalgae grown in the absence of fungicide” value is given as “about 4 times” and the “stabilization of microalgae density” value came to 0.8 ODU. In the data set with pest FD100, the “Ct observed for pest FD100 after treatment” value is greater than 30. Also, the “growth of microalgae in treated pond” value in the data set with chytrid pest (0.5 ppm added on Day 11 to P16, untreated PA6 collapses) was “Logarithmic growth continues”. Further, the “fraction of infected cells after treatment” value with chytrid pest (0.5 ppm, pond P16, increases in untreated PA6) is on record as “stabilizes or decreases”.
